{"source": "patent US11135223B2", "about": "“Compositions and methods for inhibiting Dkk-1” (YALE UNIVERSITY, priority 2016, dated 2021)", "key": {"[1]": {"tested_on": "leukocyte-platelet aggregate (CD45+CD41+ population)", "experiment": "Leukocyte-platelet aggregate (LPA) formation and PSGL-1 expression in peripheral blood, L. major infection", "format": "in vivo, mice", "source_text": "FIG. 12, comprising FIG. 12A through FIG. 12G, depicts results of experiments showing regulation of LPA formation by Dkk-1. FIG. 12A depicts AMNIS analysis of peripheral blood from 6-week old C57BL/6 male mice. FIG. 12B depicts flow cytometry analysis of the basal LPA population (CD45^+CD41^+) Dkk-1^d/d mice and their wildtype littermate controls. B-cell and CD4 T cell among CD45^+CD41^+ cells were monitored at the indicated time points in Dkk-1^d/d mice and their wildtype littermate controls challenged with 30 μg HDM extract/mouse. FIG. 12C depicts flow cytometry analysis of LPA formation in total CD45^+ cells, CD4 T cells, and neutrophils, in mice injected with Dkk-1 inhibitor (n=5) or DMSO vehicle (n=5) 24 hours prior to infection with L. major. FIG. 12D depicts flow cytometry analysis of peripheral blood at given time points for LPA formation in nine-week old C57BL/6 mice (n=5) injected with 300 ng of Dkk-1. […] Mean fluorescence intensity was normalized to unchallenged C57BL/6 mice. […] Normalized MFI for ICAM-1 expression and the percentages of LFA-1 high cells were measured by flow cytometry following injection of 300 ng of Dkk-1 intraperitoneally. […]\nHuman platelets were isolated as described from healthy volunteers (Tang et al., 2011, J Clin Invest 121:4462-76). […] Samples were analyzed by flow cytometry within 4 to 6 hours. […]"}, "leukocytes": {"tested_on": "leukocytes", "experiment": "Exogenous administration of Dkk-1 protein to mice", "format": "in vivo, C57BL/6 mice", "description": "FIG. 11, comprising FIG. 11A through FIG. 11J, depicts results of experiments showing Dkk-1 facilitates leukocyte migration and regulates leukocyte-platelet aggregate formation in type 2 inflammation. FIG. 11A depicts flow cytometry analysis of CD45^+ cells in lung homogenates from nine-week old Dkk-1^d/d mice and wildtype littermate controls (n=5-6/group) 72 hours after challenge with 30 μg HDM allergen extract. FIG. 11B depicts analysis of percentages of CD45^+CD41^+ cells in peripheral blood from nine-week old Dkk-1^d/d mice and wildtype littermate controls collected at 4 hours and 24 hours after allergen challenge. FIG. 11C depicts flow cytometry analysis of CD45+ cells after Dkk-1 protein (300 ng/mouse) was injected intraperitoneally. […]\nFIG. 12, comprising FIG. 12A through FIG. 12G, depicts results of experiments showing regulation of LPA formation by Dkk-1. […] B-cell and CD4 T cell among CD45^+CD41^+ cells were monitored at the indicated time points in Dkk-1^d/d mice and their wildtype littermate controls challenged with 30 μg HDM extract/mouse. […] Mean fluorescence intensity was normalized to unchallenged C57BL/6 mice. […] Normalized MFI for ICAM-1 expression and the percentages of LFA-1 high cells were measured by flow cytometry following injection of 300 ng of Dkk-1 intraperitoneally. […]"}}, "data": [{"molecule": "NCC1CCN(c2nccc(-c3ccc4ccccc4c3)n2)CC1", "note": "[WAY-262611, (1-(4-(naphthalen-2-yl)pyrimidin-2-yl)piperidin-4-yl)methanamine]", "values": [{"measurement": "PSGL-1 expression on leukocytes", "setting": "[1]; L. major infection, peripheral blood", "value": "blocked the increase"}, {"measurement": "elevation of LPA formation", "setting": "[1]; pretreatment 24 h prior to infection with L. major, 4 h post-infection", "value": "reduced"}]}, {"molecule": "Dkk-1: Wnt antagonist Dickkopf-1 protein, expressed in CHO cells, added to cells or injected into mice (protein, UniProt O94907 32-266, looked up) Dickkopf-related protein 1: TLNSVLNSNAIKNLPPPLGGAAGHPGSAVSAAPGILYPGGNKYQTIDNYQPYPCAEDEECGTDEYCASPTRGGDAGVQICLACRKRRKRCMRHAMCCPGNYCKNGICVSSDQNHFRGEIEETITESFGNDHSTLDGYSRRTTLSSKMYHTKGQEGSVCLRSSDCASGLCCARHFWSKICKPVLKEGQVCTKHRRKGSHGLEIFQRCYCGEGLSCRIQKDHHQASNSSRLHTCQRH", "values": [{"measurement": "LPA formation", "setting": "leukocytes; 300 ng of Dkk-1, without allergen or parasite challenge", "value": "increased"}, {"measurement": "number of infiltrated leukocytes in the lung", "setting": "leukocytes; 300 ng/mouse intraperitoneally, 72 hours after administration", "value": "did not increase"}]}]}
